8 compounds from patent US10478426B2, “Enhancer of Zeste Homolog 2 inhibitors” (GlaxoSmithKline LLC, priority 2012, dated 2019) can be followed below.

Each structure is given as a SMILES string.

The assay deals with EZH2 within the PRC2 complex (Homo sapiens (Human), UniProt Q15910). Put plainly: EZH2 methyltransferase scintillation proximity assay (SPA) with PRC2 complex. Conditions: 3H-SAM methyl transfer to Histone H3 of HeLa mononucleosomes; 30 min preincubation, 1 hour reaction. Format: biochemical. The method, then: Compounds contained herein were evaluated for their ability to inhibit the methyltransferase activity of EZH2 within the PRC2 complex. Human PRC2 complex was prepared by co-expressing each of the 5 member proteins (FLAG-EZH2, EED, SUZ12, RbAp48, AEBP2) in Sf9 cells followed by co-purification. Enzyme activity was measured in a scintillation proximity assay (SPA) where a tritiated methyl group is transferred from 3H-SAM to a lysine residue on Histone H3 of a mononucleosome, purified from HeLa cells. Mononucleosomes were captured on SPA beads and the resulting signal is read on a ViewLux plate reader.
Sequence of EZH2 within the PRC2 complex (Q15910 whole entry): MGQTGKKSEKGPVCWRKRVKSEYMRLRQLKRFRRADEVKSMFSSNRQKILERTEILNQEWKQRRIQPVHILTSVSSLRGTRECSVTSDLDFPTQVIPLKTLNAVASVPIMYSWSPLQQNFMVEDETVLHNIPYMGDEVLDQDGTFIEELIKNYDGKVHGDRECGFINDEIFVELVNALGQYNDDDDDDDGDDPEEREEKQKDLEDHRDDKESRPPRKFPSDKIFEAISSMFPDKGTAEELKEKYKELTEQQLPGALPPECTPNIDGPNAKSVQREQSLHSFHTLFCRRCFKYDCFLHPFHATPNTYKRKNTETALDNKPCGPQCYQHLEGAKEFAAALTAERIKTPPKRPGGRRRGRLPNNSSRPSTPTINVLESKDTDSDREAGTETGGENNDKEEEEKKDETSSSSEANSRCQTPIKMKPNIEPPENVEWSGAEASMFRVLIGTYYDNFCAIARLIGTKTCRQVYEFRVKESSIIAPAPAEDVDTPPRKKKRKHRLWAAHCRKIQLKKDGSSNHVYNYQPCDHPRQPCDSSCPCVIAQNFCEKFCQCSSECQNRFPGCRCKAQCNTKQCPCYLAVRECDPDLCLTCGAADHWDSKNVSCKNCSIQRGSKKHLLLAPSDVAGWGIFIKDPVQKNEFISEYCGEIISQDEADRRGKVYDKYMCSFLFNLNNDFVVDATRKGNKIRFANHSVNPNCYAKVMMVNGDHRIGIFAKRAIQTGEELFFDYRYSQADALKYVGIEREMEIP
Sequence of EZH2 within the PRC2 complex (O75530 whole entry partner): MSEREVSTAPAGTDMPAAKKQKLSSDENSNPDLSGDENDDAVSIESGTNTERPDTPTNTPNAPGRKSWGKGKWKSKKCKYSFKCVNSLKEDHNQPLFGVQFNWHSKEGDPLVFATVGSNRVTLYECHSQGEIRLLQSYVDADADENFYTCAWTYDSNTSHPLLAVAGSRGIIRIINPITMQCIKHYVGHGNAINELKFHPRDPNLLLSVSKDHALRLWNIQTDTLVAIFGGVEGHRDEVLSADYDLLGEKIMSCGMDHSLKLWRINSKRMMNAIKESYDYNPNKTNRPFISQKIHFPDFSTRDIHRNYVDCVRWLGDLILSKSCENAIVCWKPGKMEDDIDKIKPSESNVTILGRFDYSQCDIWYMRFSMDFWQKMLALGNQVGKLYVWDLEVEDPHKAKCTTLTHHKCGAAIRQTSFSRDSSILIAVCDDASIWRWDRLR
Sequence of EZH2 within the PRC2 complex (Q15022 whole entry partner): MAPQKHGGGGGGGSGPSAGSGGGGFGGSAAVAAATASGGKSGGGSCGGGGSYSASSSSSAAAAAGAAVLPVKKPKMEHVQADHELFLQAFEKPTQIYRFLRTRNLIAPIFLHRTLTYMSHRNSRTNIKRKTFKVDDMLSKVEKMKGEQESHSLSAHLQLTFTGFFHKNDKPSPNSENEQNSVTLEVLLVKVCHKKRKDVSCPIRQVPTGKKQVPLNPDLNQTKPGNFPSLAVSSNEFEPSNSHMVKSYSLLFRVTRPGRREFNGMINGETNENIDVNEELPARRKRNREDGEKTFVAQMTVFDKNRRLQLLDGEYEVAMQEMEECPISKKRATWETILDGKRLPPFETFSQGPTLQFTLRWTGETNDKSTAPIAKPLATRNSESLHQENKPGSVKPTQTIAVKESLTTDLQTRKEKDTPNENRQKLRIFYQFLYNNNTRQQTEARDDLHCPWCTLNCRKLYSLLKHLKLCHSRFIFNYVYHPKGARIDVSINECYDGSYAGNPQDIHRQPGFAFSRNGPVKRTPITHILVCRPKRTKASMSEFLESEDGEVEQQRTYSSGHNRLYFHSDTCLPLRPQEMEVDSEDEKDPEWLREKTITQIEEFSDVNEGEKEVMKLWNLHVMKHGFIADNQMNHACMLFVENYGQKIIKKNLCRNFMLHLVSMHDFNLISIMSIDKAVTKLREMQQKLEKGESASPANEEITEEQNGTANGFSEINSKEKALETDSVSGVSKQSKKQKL
Sequence of EZH2 within the PRC2 complex (Q09028 whole entry partner): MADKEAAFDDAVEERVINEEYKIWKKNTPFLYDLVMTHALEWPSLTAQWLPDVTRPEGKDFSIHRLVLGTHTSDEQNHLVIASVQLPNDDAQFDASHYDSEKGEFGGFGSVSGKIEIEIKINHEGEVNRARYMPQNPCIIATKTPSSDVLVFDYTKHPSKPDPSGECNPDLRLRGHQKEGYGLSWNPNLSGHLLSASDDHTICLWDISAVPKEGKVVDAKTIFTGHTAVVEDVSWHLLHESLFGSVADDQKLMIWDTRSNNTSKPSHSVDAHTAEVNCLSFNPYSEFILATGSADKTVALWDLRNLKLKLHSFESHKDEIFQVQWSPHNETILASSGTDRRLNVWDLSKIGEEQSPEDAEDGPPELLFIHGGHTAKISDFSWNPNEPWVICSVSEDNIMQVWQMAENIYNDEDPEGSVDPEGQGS
Sequence of EZH2 within the PRC2 complex (Q6ZN18 whole entry partner): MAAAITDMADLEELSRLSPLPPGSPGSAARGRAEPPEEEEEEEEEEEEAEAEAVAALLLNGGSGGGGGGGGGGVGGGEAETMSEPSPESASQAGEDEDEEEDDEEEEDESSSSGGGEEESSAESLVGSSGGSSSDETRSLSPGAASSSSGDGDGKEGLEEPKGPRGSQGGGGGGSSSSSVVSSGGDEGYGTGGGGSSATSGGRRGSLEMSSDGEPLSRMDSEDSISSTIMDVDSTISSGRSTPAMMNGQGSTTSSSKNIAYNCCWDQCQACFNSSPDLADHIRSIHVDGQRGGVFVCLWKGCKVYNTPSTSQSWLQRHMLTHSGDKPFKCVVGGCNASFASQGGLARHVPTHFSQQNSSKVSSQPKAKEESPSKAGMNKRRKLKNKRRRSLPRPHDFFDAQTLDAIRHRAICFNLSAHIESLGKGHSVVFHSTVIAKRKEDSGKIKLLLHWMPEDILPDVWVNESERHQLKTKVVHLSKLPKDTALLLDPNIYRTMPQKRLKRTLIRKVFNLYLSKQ
Part A. Compound Preparation
• 1. Prepare 10 mM stock of compounds from solid in 100% DMSO. • 2. Set up an 11-point serial dilution (1:3 dilution, top concentration 10 mM) in 100% DMSO for each test compound in a 384 well plate leaving columns 6 and 18 for DMSO controls. • 3. Dispense 100 nL of compound from the dilution plate into reaction plates (Grenier Bio-One, 384-well, Cat #784075). Part B. Reagent Preparation Prepare the Following Solutions: • 1. 50 mM Tris-HCl, pH 8: Per 1 L of base buffer, combine 1 M Tris-HCl, pH 8 (50 mL) and distilled water (950 mL). • 2. 1× Assay Buffer: Per 10 mL of 1× Assay Buffer, combine 50 mM Tris-HCl, pH 8 (9958 uL), 1 M MgCl2 (20 uL), 2 M DTT (20 uL), and 10% Tween-20 (2 uL) to provide a final concentration of 50 mM Tris-HCl, pH 8, 2 mM MgCl2, 4 mM DTT, 0.002% Tween-20. • 3. 2× Enzyme Solution: Per 10 mL of 2× Enzyme Solution, combine 1× Assay Buffer and PRC2 complex to provide a final enzyme concentration of 10 nM. • 4. SPA Bead Suspension: Per 1 mL of SPA Bead Suspension, combine PS-PEI coated LEADSeeker beads (40 mg) and ddH2O (1 mL) to provide a final concentration of 40 mg/mL. • 5. 2× Substrate Solution: Per 10 mL of 2× Substrate Solution, combine 1× Assay Buffer (9728.55 uL), 800 ug/mL mononucleosomes (125 uL), 1 mM cold SAM (4 uL), and 7.02 uM 3H-SAM (142.45 uL; 0.55 mCi/mL) to provide a final concentration of 5 ug/mL nucleosomes, 0.2 uM cold SAM, and 0.05 uM 3H-SAM. • 6. 2.67× Quench/Bead Mixture: Per 10 mL of 2.67× Quench/Bead Mixture, combine ddH2O (9358 uL), 10 mM cold SAM (267 uL), 40 mg/mL Bead Suspension (375 uL) to provide a final concentration of 100 uM cold SAM and 0.5 mg/mL SPA beads. Part C. Assay Reaction in 384-Well Grenier Bio-One Plates Compound Addition • 1. Dispense 100 nL/well of 100× Compound to test wells (as noted above). • 2. Dispense 100 nL/well of 100% DMSO to columns 6 & 18 for high and low controls, respectively. Assay • 1. Dispense 5 uL/well of 1× Assay Buffer to column 18 (low control reactions). • 2. Dispense 5 uL/well of 2× Enzyme Solution to columns 1-17, 19-24. • 3. Spin assay plates for ˜1 minute at 500 rpm. • 4. Stack the assay plates, covering the top plate. • 5. Incubate the compound/DMSO with the enzyme for 30 minutes at room temperature. • 6. Dispense 5 uL/well of 2× Substrate Solution to columns 1-24. • 7. Spin assay plates for ˜1 minute at 500 rpm. • 8. Stack the assay plates, covering the top plate. • 9. Incubate the assay plates at room temperature for 1 hour. Quench/Bead Addition • 1. Dispense 5 uL/well of the 3× Quench/Bead Mixture to columns 1-24. • 2. Seal the top of each assay plate with adhesive TopSeal. • 3. Spin assay plates for ˜1 minute at 500 rpm. • 4. Equilibrate the plates for >20 min. Read Plates • 1. Read the assay plates on the Viewlux Plate Reader utilizing the 613 nm emission filter with a 300 s read time. Reagent addition can be done manually or with automated liquid handler. • The final DMSO concentration in this assay is 1%. • The positive control is in column 6; negative control is in column 18. • Final starting concentration of compounds is 100 μM. Results
Percent inhibition was calculated relative to the DMSO control for each compound concentration and the resulting values were fit using standard IC50 fitting parameters within the ABASE data fitting software package.
Background: SPA uses beads or plates that emit light when radiolabelled molecules are held near them.
What is called IC50 is the midpoint of a concentration-inhibition curve. A high value points to weaker potency. As for `CCCc1cc(C)[nH]c(=O)c1CNC(=O)c1cc(Br)cc(NC(C)C)c1C` [Example 1, 5-Bromo-2-methyl-3-[(1-methylethyl)amino]-N-[(6-methyl-2-oxo-4-propyl-1,2-dihydro-3-pyridinyl)methyl]benzamide], half-maximal inhibition (IC50) required 0.501 µM.

In turn, `CCCc1cc(C)[nH]c(=O)c1CNC(=O)c1cc(-c2ccc(N3CCN(C)CC3)nc2)cc(NC(C)C)c1C` [Example 2, 2-Methyl-3-[(1-methylethyl)amino]-N-[(6-methyl-2-oxo-4-propyl-1,2-dihydro-3-pyridinyl)methyl]-5-[6-(4-methyl-1-piperazinyl)-3-pyridinyl]benzamide] displayed an IC50 of 0.04 µM.

Turning to `Cc1cc(Cc2ccccc2)c(CNC(=O)c2cc(Br)cc(NC(C)C)c2C)c(=O)[nH]1` [Example 4, 5-Bromo-2-methyl-3-[(1-methylethyl)amino]-N-{[6-methyl-2-oxo-4-(phenylmethyl)-1,2-dihydro-3-pyridinyl]methyl}benzamide], it took 0.05 µM to reach half-maximal inhibition (IC50).

The compound `CCC(C)Oc1cc(Br)cc(C(=O)NCc2c(C)cc(C)[nH]c2=O)c1C` (centres unmarked) [Example 20, 5-Bromo-3-(sec-butoxy)-N-((4,6-dimethyl-2-oxo-1,2-dihydropyridin-3-yl)methyl)-2-methylbenzamide] came in with an IC50 of 0.013 µM.

As to `Cc1cc(C)c(CNC(=O)c2cc(Cl)cc(OC(C)C)c2Cl)c(=O)[nH]1` [Example 24, 2,5-Dichloro-N-[(4,6-dimethyl-2-oxo-1,2-dihydro-3-pyridinyl)methyl]-3-[(1-methylethyl)oxy]benzamide], the IC50 was found to be 0.25 µM.

Turning to `Cc1cc(C)c(CNC(=O)c2cc(Cl)cc(NC(C)CO)c2C)c(=O)[nH]1` (centres unmarked) [Example 26, 5—Chloro-N-[(4,6-dimethyl-2-oxo-1,2-dihydro-3-pyridinyl)methyl]-3-[(2-hydroxy-1-methylethyl)amino]-2-methylbenzamide], the IC50 stood at 1 µM.

`COc1cccc(C(=O)NCc2c(C)cc(C)[nH]c2=O)c1C` [Example 36, N-((4,6-dimethyl-2-oxo-1,2-dihydropyridin-3-yl)methyl)-3-methoxy-2-methylbenzamide] displayed an IC50 of 2.5 µM.

`CCC(C)Oc1cc(C#N)cc(C(=O)NCc2c(C)cc(C)[nH]c2=O)c1C` (centres unmarked) [Example 44, 3-(sec-Butoxy)-5-cyano-N-((4,6-dimethyl-2-oxo-1,2-dihydropyridin-3-yl)methyl)-2-methylbenzamide] yielded an IC50 of 0.316 µM.
